Measured values: US7485652B2, “Indolyl derivatives as liver-X-receptor (LXR) modulators” (Hoffmann-La Roche Inc., priority 2004, dated 2009)

Legend:
human LXR alpha = target: T1, human LXR alpha (Homo sapiens, UniProt Q13133); assay: Radioligand binding assay (scintillation proximity), LXR alpha; conditions: GST-LXRα-LBD on SPA beads, radioligand displacement; read-out: LXRalpha Binding IC50
T1 construct: human LXR alpha (aa 164 to 447); made in house; host or cells: E. coli BL21(pLysS)
T1 sequence (Q13133 164-447): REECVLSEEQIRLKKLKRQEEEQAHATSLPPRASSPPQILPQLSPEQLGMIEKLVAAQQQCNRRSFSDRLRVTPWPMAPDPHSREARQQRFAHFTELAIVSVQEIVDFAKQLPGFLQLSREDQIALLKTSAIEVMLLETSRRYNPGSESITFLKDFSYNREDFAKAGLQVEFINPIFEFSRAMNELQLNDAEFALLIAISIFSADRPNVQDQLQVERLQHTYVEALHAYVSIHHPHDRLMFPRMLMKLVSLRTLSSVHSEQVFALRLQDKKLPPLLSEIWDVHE
Experimental: (§1) The following tests were carried out in order to determine the activity of the compounds of the present invention. Background information on the performed assays can be found in: Nichols J S et al. “Development of a scintillation proximity assay for peroxisome proliferator-activated receptor gamma ligand binding domain”, Anal Biochem. 1998, 257: 112-119.
(§2) Mammalian expression vectors were constructed to express full-length human LXR alpha and LXR beta. Bacterial expression vectors were constructed to produce glutathione-s-transferase (GST) fused to the ligand binding domains (LBD) of human LXR alpha (aa 164 to 447) and human LXR beta (aa 155 to 460). To accomplish this, the portions of the sequences encoding the LBDs were amplified from full-length clones by PCR and then subdoned into the plasmid vectors. Final clones were verified by DNA sequence analysis (Willy et al., Genes Dev. 1995, 9:1033-45; Song et al., Proc Natl Acad Sci USA.1994, 91:10809-13). […]
(§3) LXR alpha and LXR beta receptor binding were assayed in buffer consisting of 50 mM HEPES, pH 7.4, 10 mM NaCl, 5 mM MgCl2. […] All binding assays were performed in 96-well plates and the amount of bound ligand was measured on a Packard TopCount using OptiPlates (Packard). Dose response curves were measured within a range of concentration from 10^−10 M to 10^−4 M.

human LXR beta = target: T2, human LXR beta (Homo sapiens, UniProt P55055); assay: Radioligand binding assay (scintillation proximity), LXR beta; conditions: GST-LXR beta-LBD on SPA beads, radioligand displacement; read-out: LXRbeta Binding IC50
T2 construct: human LXR beta (aa 155 to 460); made in house; host or cells: E. coli BL21(pLysS)
T2 sequence (P55055 155-460): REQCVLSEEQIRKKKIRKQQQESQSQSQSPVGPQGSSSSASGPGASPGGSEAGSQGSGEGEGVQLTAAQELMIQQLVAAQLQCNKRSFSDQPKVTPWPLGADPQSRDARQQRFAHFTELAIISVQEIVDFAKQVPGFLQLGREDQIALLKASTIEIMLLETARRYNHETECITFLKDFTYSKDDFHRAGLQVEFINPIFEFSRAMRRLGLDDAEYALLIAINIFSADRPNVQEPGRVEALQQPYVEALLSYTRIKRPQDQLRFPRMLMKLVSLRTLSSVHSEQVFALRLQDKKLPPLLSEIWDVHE
Experimental: as §1, §2, §3

IC50 (human LXR alpha) | IC50 (human LXR beta) | Compound
20 nM | 6 nM | CC1Cc2cc(C(O)(C(F)(F)F)C(F)(F)F)ccc2N1Cc1cccc(CO)c1 (stereo not shown) [Example 50, 1,1,1,3,3,3-hexafluoro-2-[1-(3-hydroxymethyl-benzyl)-2-methyl-2,3-dihydro-1H-indol-5-yl]-propan-2-ol]
30 nM | 50 nM | Cc1cc2cc(C(O)(C(F)(F)F)C(F)(F)F)ccc2n1Cc1ccccc1 [Example 80, 2-(1-benzyl-2-methyl-1H-indol-5-yl)-1,1,1,3,3,3-hexafluoro-propan-2-ol]
